Experimental data from publication doi:10.1101/2021.09.28.462154v2 (biorxiv, 2022).

Legend:
OR5AN1 = target: T1, OR5AN1 (Homo sapiens, UniProt Q8NGI8); experiment: cAMP accumulation; type: biochemical
T1 sequence (Q8NGI8 1-311): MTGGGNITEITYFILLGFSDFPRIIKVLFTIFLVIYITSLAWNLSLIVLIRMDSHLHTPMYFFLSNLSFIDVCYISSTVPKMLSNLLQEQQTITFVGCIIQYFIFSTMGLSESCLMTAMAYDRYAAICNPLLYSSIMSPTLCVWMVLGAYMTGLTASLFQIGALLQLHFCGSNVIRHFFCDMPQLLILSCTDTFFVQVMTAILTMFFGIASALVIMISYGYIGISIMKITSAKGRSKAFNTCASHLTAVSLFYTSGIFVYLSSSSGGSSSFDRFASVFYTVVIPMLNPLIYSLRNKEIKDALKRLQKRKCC

OR1A1 = target: T2, OR1A1 (Homo sapiens, UniProt Q9P1Q5); experiment: cAMP accumulation; type: biochemical
T2 sequence (Q9P1Q5 1-309): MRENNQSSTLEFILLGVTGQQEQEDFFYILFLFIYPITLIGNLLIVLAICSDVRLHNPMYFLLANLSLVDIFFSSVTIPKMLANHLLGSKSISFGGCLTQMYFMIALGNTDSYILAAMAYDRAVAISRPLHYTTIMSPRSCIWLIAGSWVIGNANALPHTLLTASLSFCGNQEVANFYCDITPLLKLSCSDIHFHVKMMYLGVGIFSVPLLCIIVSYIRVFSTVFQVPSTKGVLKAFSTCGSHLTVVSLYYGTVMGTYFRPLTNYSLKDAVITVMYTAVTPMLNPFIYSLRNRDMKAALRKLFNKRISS

Structure (SMILES) | EC50 (OR5AN1) [nM] | EC50 (OR1A1) [nM]
C[C@@H]1CCCCCCCCCCCCC(=O)C1 [muscone] | 290 | –
CCCCCC(=O)C(C)C(C)=O (centres unmarked) [3-methyl-2,4-nonanedione] | – | 388
